What was measured:
Experiment in all cases: relative viability (nuclei count vs DMSO), 5 days (fraction); higher = more cells survive
Kobe2602 + Palbociclib = compound: C1=CC(=CC=C1NC(=S)NNC2=C(C=C(C=C2[N+](=O)[O-])C(F)(F)F)[N+](=O)[O-])F [Kobe2602] + CC(=O)c1c(C)c2cnc(Nc3ccc(N4CCNCC4)cn3)nc2n(C2CCCC2)c1=O [Palbociclib] (partner 0.5 µM)
Summary of the method: (§1)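 One day after seeding in 1536-well plates, lung cancer cell lines were dosed by pin tool. Dosing was either single-drug or a fixed anchor-drug dose plus five library-drug doses (not always all listed) in √10 steps. After 5 days, nuclei were stained in one fix-and-stain step and counted on 4× images, and relative viability is the nuclei count of treated wells over that of vehicle wells, given as the median of duplicate plates.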

[1] = compound: COc1cc2nccc(Oc3ccc(NC(=O)C4(C(=O)Nc5ccc(F)cc5)CC4)cc3)c2cc1OC [Cabozantinib] + CC(C)C[C@H](NC(=O)[C@H](Cc1ccccc1)NC(=O)c1cnccn1)B(O)O [Bortezomib] (partner 0.002 µM)
Summary of the method: as §1

Cabozantinib + Foretinib = compound: COc1cc2nccc(Oc3ccc(NC(=O)C4(C(=O)Nc5ccc(F)cc5)CC4)cc3)c2cc1OC [Cabozantinib] + COc1cc2c(Oc3ccc(NC(=O)C4(C(=O)Nc5ccc(F)cc5)CC4)cc3F)ccnc2cc1OCCCN1CCOCC1 [Foretinib] (partner 0.25 µM)
Summary of the method: as §1

Cabozantinib + Lapatinib = compound: COc1cc2nccc(Oc3ccc(NC(=O)C4(C(=O)Nc5ccc(F)cc5)CC4)cc3)c2cc1OC [Cabozantinib] + CS(=O)(=O)CCNCc1ccc(-c2ccc3ncnc(Nc4ccc(OCc5cccc(F)c5)c(Cl)c4)c3c2)o1 [Lapatinib] (partner 2 µM)
Summary of the method: as §1

Cell Line | relative viability (Kobe2602 + Palbociclib; first compound 0.2 µM) | relative viability (Kobe2602 + Palbociclib; first compound 0.6325 µM) | relative viability (Kobe2602 + Palbociclib; first compound 2 µM) | relative viability (Kobe2602 + Palbociclib; first compound 6.325 µM) | relative viability (Kobe2602 + Palbociclib; first compound 20 µM) | relative viability ([1]; first compound 0.02 µM) | relative viability ([1]; first compound 0.06325 µM) | relative viability ([1]; first compound 0.2 µM) | relative viability ([1]; first compound 0.6325 µM) | relative viability ([1]; first compound 2 µM) | relative viability (Cabozantinib + Foretinib; first compound 0.02 µM) | relative viability (Cabozantinib + Foretinib; first compound 0.06325 µM) | relative viability (Cabozantinib + Foretinib; first compound 0.2 µM) | relative viability (Cabozantinib + Foretinib; first compound 0.6325 µM) | relative viability (Cabozantinib + Foretinib; first compound 2 µM) | relative viability (Cabozantinib + Lapatinib; first compound 0.02 µM) | relative viability (Cabozantinib + Lapatinib; first compound 0.06325 µM) | relative viability (Cabozantinib + Lapatinib; first compound 0.2 µM) | relative viability (Cabozantinib + Lapatinib; first compound 0.6325 µM) | relative viability (Cabozantinib + Lapatinib; first compound 2 µM)
NCI-H1437 | 0.308 | 0.306 | 0.299 | 0.337 | 0.257 | 0.533 | 0.635 | 0.549 | 0.565 | 0.64 | 1.29 | 1.37 | 1.29 | 1.27 | 1.21 | 0.892 | 0.91 | 0.798 | 0.823 | 0.779
NCI-H1650 | 0.36 | 0.35 | 0.365 | 0.366 | 0.261 | 0.182 | 0.212 | 0.184 | 0.199 | 0.222 | 1.31 | 1.48 | 1.02 | 1.27 | 0.978 | 0.788 | 0.916 | 0.904 | 0.708 | 0.568
NCI-H1651 | 0.528 | 0.52 | 0.521 | 0.524 | 0.518 | 0.883 | 1.03 | 0.891 | 0.904 | 0.985 | 1 | 0.739 | 1.05 | 0.875 | 0.783 | 0.812 | 0.794 | 0.71 | 0.786 | 0.754
NCI-H1666 | 0.644 | 0.628 | 0.596 | 0.647 | 0.619 | 0.87 | 0.934 | 0.879 | 1.02 | 0.875 | 1.04 | 1.06 | 0.99 | 0.949 | 0.981 | 0.693 | 0.621 | 0.677 | 0.712 | 0.595
NCI-H1734 | 0.364 | 0.412 | 0.325 | 0.607 | 0.334 | 1.04 | 1.06 | 0.987 | 0.891 | 0.951 | 0.916 | 0.864 | 0.878 | 0.858 | 0.769 | 0.98 | 1.09 | 0.984 | 1.08 | 1.01
NCI-H1755 | 0.457 | 0.467 | 0.484 | 0.459 | 0.465 | 0.962 | 1 | 0.903 | 0.895 | 0.928 | 0.911 | 1.01 | 0.92 | 0.917 | 0.856 | 1.02 | 1.12 | 1.05 | 0.964 | 0.932
NCI-H1915 | 0.512 | 0.558 | 0.578 | 0.536 | 0.57 | 1.01 | 1.02 | 0.971 | 1.01 | 0.979 | 1.17 | 1.14 | 1.08 | 1.07 | 1.13 | 0.946 | 0.987 | 0.967 | 0.999 | 0.989
NCI-H1975 | 0.668 | 0.599 | 0.613 | 0.544 | 0.631 | 0.409 | 0.403 | 0.357 | 0.402 | 0.389 | 1.04 | 1.01 | 1.1 | 0.89 | 0.849 | 0.969 | 0.986 | 0.852 | 0.845 | 0.797
NCI-H1993 | 0.679 | 0.543 | 0.48 | 0.589 | 0.525 | 0.829 | 1.2 | 0.716 | 0.816 | 0.988 | 0.807 | 0.74 | 0.649 | 0.745 | 0.735 | 0.76 | 0.807 | 0.792 | 0.725 | 0.814
NCI-H2009 | 0.241 | 0.258 | 0.294 | 0.24 | 0.254 | 1.06 | 1.15 | 1.07 | 1.16 | 0.998 | 1.24 | 1.26 | 1.19 | 1.28 | 1.29 | 1.06 | 0.959 | 1 | 0.965 | 0.941
NCI-H2023 | 0.33 | 0.41 | 0.405 | 0.32 | 0.255 | 0.893 | 0.957 | 0.819 | 0.889 | 1.03 | 0.917 | 1.2 | 1.05 | 0.956 | 0.896 | 0.473 | 0.74 | 0.708 | 0.552 | 0.591
NCI-H2085 | 0.506 | 0.481 | 0.508 | 0.489 | 0.418 | 1.22 | 1.14 | 1.08 | 1.01 | 1.03 | 0.765 | 1.05 | 0.982 | 1.05 | 0.855 | 0.793 | 0.881 | 0.676 | 0.728 | 0.643
NCI-H2087 | 0.202 | 0.258 | 0.21 | 0.297 | 0.237 | 0.863 | 1.04 | 0.702 | 0.661 | 0.815 | 1.17 | 1 | 1.3 | 1.2 | 0.967 | 1.09 | 1.18 | 1.02 | 1.01 | 0.982
NCI-H2126 | 0.379 | 0.357 | 0.343 | 0.346 | 0.35 | 1.13 | 1.11 | 1.1 | 1.14 | 1.11 |  | 1.36 | 1.22 | 1.06 | 1.17 | 0.612 | 0.843 | 0.723 | 0.75 | 0.77
NCI-H2228 | 0.843 | 0.625 | 0.687 | 0.691 | 0.838 | 1.04 | 1.47 | 1.33 | 1.11 | 0.926 | 1.08 | 1.26 | 0.932 | 0.794 | 0.672 | 1.08 | 1.41 | 1.11 | 1 | 1.06
NCI-H2347 | 0.422 | 0.435 | 0.403 | 0.438 | 0.421 | 0.875 | 1.34 | 0.944 | 0.963 | 0.666 | 0.842 | 0.916 | 1.28 | 1.11 | 1.05 | 0.883 | 0.951 | 1.03 | 0.824 | 0.925
